Measurements published in US8642587B2, “Heterocyclic compounds, pharmaceutical compositions containing them, and their use in therapy” (AbbVie Deutschland GmbH & Co. KG, priority 2009, dated 2014).
Where a name gives a salt, the structure may show the parent alone.

target: T1, human GlyT1c transporter (Homo sapiens, UniProt P48067); assay: Radioligand binding assay using recombinant CHO cell membranes expressing human GlyT1; settings: values given as bounds, read-out: radioligand binding K^iapp
T1 construct: expressed in transfected cells; host or cells: CHO cells (recombinant; membranes)
T1 sequence (P48067 1-706): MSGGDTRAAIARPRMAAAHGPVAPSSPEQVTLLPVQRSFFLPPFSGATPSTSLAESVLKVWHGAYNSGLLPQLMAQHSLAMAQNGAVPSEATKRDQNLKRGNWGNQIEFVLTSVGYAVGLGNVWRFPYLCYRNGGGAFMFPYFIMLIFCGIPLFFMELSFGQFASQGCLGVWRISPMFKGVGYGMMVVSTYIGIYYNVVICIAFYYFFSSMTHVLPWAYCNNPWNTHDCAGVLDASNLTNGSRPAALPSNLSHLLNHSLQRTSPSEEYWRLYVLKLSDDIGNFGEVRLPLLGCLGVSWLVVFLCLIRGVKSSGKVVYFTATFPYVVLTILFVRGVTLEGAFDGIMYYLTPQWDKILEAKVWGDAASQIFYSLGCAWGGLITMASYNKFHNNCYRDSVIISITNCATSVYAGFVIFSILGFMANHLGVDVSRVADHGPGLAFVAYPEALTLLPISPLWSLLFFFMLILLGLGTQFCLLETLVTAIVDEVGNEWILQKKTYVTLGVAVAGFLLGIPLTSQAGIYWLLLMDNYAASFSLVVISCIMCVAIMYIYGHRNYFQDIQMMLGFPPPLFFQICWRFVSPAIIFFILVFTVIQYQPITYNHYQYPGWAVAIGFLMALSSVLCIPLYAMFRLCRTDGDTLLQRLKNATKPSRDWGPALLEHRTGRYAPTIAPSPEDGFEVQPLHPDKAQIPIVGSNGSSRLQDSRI
Description: Radioligand binding to human GlyT1c transporter-expressing membranes was carried out as described in Mezler et al., Molecular Pharmacology 74:1705-1715, 2008.

Ki, ≤ 1000 nM:
Cn1cnc(S(=O)(=O)NCCn2cc3c(n2)C(C2(c4ccc(Cl)cc4)CCC2)NCC3)c1 (stereo not drawn) [Example 9.7, N-(2-(7-(1-(4-Chlorophenyl)cyclobutyl)-4,5,6,7-tetrahydro-2H-pyrazolo[3,4-c]pyridin-2-yl)ethyl)-1-methyl-1H-imidazole-4-sulfonamide hydrochloride]
O=S(=O)(CCCF)NCCn1cc2c(n1)C(C1(c3ccc(Cl)cc3)CCC1)NCC2 (stereo not drawn) [Example 9.8, N-(2-(7-(1-(4-Chlorophenyl)cyclobutyl)-4,5,6,7-tetrahydro-2H-pyrazolo[3,4-c]pyridin-2-yl)ethyl)-3-fluoropropane-1-sulfonamide hydrochloride]
O=S(=O)(CC1CC1)NCCn1cc2c(n1)C(C1(c3ccc(Cl)cc3)CCC1)NCC2 (stereo not drawn) [Example 9.10, N-(2-(7-(1-(4-Chlorophenyl)cyclobutyl)-4,5,6,7-tetrahydro-2H-pyrazolo[3,4-c]pyridin-2-yl)-ethyl)-1-cyclopropylmethanesulfonamide hydrochloride]
CCCS(=O)(=O)NCCn1c2c(c3ccccc31)CCNC2C1(c2ccc(Cl)cc2)CCC1 (stereo not drawn) [Example 11, N-(2-{1-[1-(4-Chlorophenyl)cyclobutyl]-1,2,3,4-tetrahydro-9H-b-carbolin-9-yl}ethyl)propane-1-sulfonamide]
CCCS(=O)(=O)N(C)CCn1cc2c(n1)C(C1(c3ccc(Cl)cc3)CCC1)NCC2 (stereo not drawn) [Example 10, N-(2-(7-(1-(4-chlorophenyl)cyclobutyl)-4,5,6,7-tetrahydro-2H-pyrazolo[3,4-c]pyridin-2-yl)ethyl)-N-methylpropane-1-sulfonamide hydrochloride]
O=S(=O)(NCCn1cc2c(n1)C(C1(c3ccc(Cl)cc3)CCC1)NCC2)C1CCC1 (stereo not drawn) [Example 9.9, N-(2-(7-(1-(4-Chlorophenyl)cyclobutyl)-4,5,6,7-tetrahydro-2H-pyrazolo[3,4-c]pyridin-2-yl)-ethyl)cyclobutanesulfonamide hydrochloride]
O=S(=O)(NCCn1cc2c(n1)C(C1(c3ccc(Cl)cc3)CCC1)NCC2)c1cccnc1 (stereo not drawn) [Example 9.12, N-(2-(7-(1-(4-Chlorophenyl)cyclobutyl)-4,5,6,7-tetrahydro-2H-pyrazolo[3,4-c]pyridin-2-yl)ethyl)pyridine-3-sulfonamide dihydrochloride]
CC(C)CS(=O)(=O)NCCn1cc2c(n1)C(C1(c3ccc(Cl)cc3)CCC1)NCC2 (stereo not drawn) [Example 9.11, N-(2-(7-(1-(4-chlorophenyl)cyclobutyl)-4,5,6,7-tetrahydro-2H-pyrazolo[3,4-c]pyridin-2-yl)ethyl)-2-methylpropane-1-sulfonamide hydrochloride]
Cn1cnc(S(=O)(=O)NCCn2ncc3c2C(C2(c4ccc(Cl)cc4)CCC2)NCC3)c1 (stereo not drawn) [Example 7.4, N-(2-(7-(1-(4-Chlorophenyl)cyclobutyl)-4,5,6,7-tetrahydro-1H-pyrazolo[3,4-c]pyridin-1-yl)ethyl)-1-methyl-1H-imidazole-4-sulfonamide hydrochloride]
Cn1cnc(S(=O)(=O)NCc2ncc3c(n2)C(C2(c4ccc(Cl)cc4)CCC2)NCC3)c1 (stereo not drawn) [Example 8.4, N-((8-(1-(4-Chlorophenyl)cyclobutyl)-5,6,7,8-tetrahydropyrido[3,4-d]pyrimidin-2-yl)methyl)-1-methyl-1H-imidazole-4-sulfonamide hydrochloride]
O=S(=O)(NCCn1cc2c(n1)C(C1(c3ccc(Cl)cc3)CCC1)NCC2)c1ccccc1 (stereo not drawn) [Example 9.4, N-(2-(7-(1-(4-Chlorophenyl)cyclobutyl)-4,5,6,7-tetrahydro-2H-pyrazolo[3,4-c]pyridin-2-yl)ethyl)benzenesulfonamide hydrochloride]
O=S(=O)(CC1CC1)NCc1ncc2c(n1)C(C1(c3ccc(Cl)cc3)CCC1)NCC2 (stereo not drawn) [Example 8.2, N-((8-(1-(4-Chlorophenyl)cyclobutyl)-5,6,7,8-tetrahydropyrido[3,4-d]pyrimidin-2-yl)methyl)-1-cyclopropylmethanesulfonamide hydrochloride]
CCCCS(=O)(=O)NCCn1cc2c(n1)C(C1(c3ccc(Cl)cc3)CCC1)NCC2 (stereo not drawn) [Example 9.5, N-(2-(7-(1-(4-Chlorophenyl)cyclobutyl)-4,5,6,7-tetrahydro-2H-pyrazolo[3,4-c]pyridin-2-yl)-ethyl)butane-1-sulfonamide hydrochloride]
CCCS(=O)(=O)NCc1ncc2c(n1)C(C1(c3ccc(Cl)cc3)CCC1)NCC2 (stereo not drawn) [Example 8.1, N-((8-(1-(4-Chlorophenyl)cyclobutyl)-5,6,7,8-tetrahydropyrido[3,4-d]pyrimidin-2-yl)methyl)propane-1-sulfonamide hydrochloride]
Cn1cc(S(=O)(=O)NCc2ncc3c(n2)C(C2(c4ccc(Cl)cc4)CCC2)NCC3)cn1 (stereo not drawn) [Example 8.3, N-((8-(1-(4-Chlorophenyl)cyclobutyl)-5,6,7,8-tetrahydropyrido[3,4-d]pyrimidin-2-yl)methyl)-1-methyl-1H-pyrazole-4-sulfonamide hydrochloride]
Cn1cc(S(=O)(=O)NCCn2cc3c(n2)C(C2(c4ccc(Cl)cc4)CCC2)NCC3)cn1 (stereo not drawn) [Example 9.6, N-(2-(7-(1-(4-Chlorophenyl)cyclobutyl)-4,5,6,7-tetrahydro-2H-pyrazolo[3,4-c]pyridin-2-yl)-ethyl)-1-methyl-1H-pyrazole-4-sulfonamide hydrochloride]
CS(=O)(=O)NCCn1cc2c(n1)C(C1(c3ccc(Cl)cc3)CCC1)NCC2 (stereo not drawn) [Example 9.3, N-(2-(7-(1-(4-Chlorophenyl)cyclobutyl)-4,5,6,7-tetrahydro-2H-pyrazolo[3,4-c]pyridin-2-yl)ethyl)methanesulfonamide hydrochloride]
CCCS(=O)(=O)NCCn1cc2c(n1)C(C1(c3ccc(Cl)cc3)CCC1)NCC2 (stereo not drawn) [Example 9.1, N-(2-(7-(1-(4-Chlorophenyl)cyclobutyl)-4,5,6,7-tetrahydro-2H-pyrazolo[3,4-c]pyridin-2-yl)ethyl)propane-1-sulfonamide hydrochloride]
CCCS(=O)(=O)NCCn1ncc2c1C(C1(c3ccc(Cl)cc3)CCC1)NCC2 (stereo not drawn) [Example 7.1, N-(2-(7-(1-(4-Chlorophenyl)cyclobutyl)-4,5,6,7-tetrahydro-1H-pyrazolo[3,4-c]pyridin-1-yl)ethyl)propane-1-sulfonamide hydrochloride]
O=S(=O)(CCCF)NCCn1ncc2c1C(C1(c3ccc(Cl)cc3)CCC1)NCC2 (stereo not drawn) [Example 7.3, N-(2-(7-(1-(4-Chlorophenyl)cyclobutyl)-4,5,6,7-tetrahydro-1H-pyrazolo[3,4-c]pyridin-1-yl)ethyl)-3-fluoropropane-1-sulfonamide hydrochloride]
O=S(=O)(CCCF)NCc1ncc2c(n1)C(C1(c3ccc(Cl)cc3)CCC1)NCC2 (stereo not drawn) [Example 8.5, N-((8-(1-(4-Chlorophenyl)cyclobutyl)-5,6,7,8-tetrahydropyrido[3,4-d]pyrimidin-2-yl)methyl)-3-fluoropropane-1-sulfonamide hydrochloride]

Ki, ≥ 10000 nM:
NCCn1cc2c(n1)C(C1(c3ccc(Cl)cc3)CCC1)NCC2 (stereo not drawn) [Example 6, 2-(7-(1-(4-Chlorophenyl)cyclobutyl)-4,5,6,7-tetrahydro-2H-pyrazolo[3,4-c]pyridin-2-yl)ethanamine dihydrochloride]

Ki, ≤ 10000 nM:
Cn1cc(S(=O)(=O)NCCn2ncc3c2C(C2(c4ccc(Cl)cc4)CCC2)NCC3)cn1 (stereo not drawn) [Example 7.2, N-(2-(7-(1-(4-Chlorophenyl)cyclobutyl)-4,5,6,7-tetrahydro-1H-pyrazolo[3,4-c]pyridin-1-yl)ethyl)-1-methyl-1H-pyrazole-4-sulfonamide hydrochloride]
CCS(=O)(=O)NCCn1cc2c(n1)C(C1(c3ccc(Cl)cc3)CCC1)NCC2 (stereo not drawn) [Example 9.2, N-(2-(7-(1-(4-Chlorophenyl)cyclobutyl)-4,5,6,7-tetrahydro-2H-pyrazolo[3,4-c]pyridin-2-yl)ethyl)ethanesulfonamide hydrochloride]
